Measurements reported in ChEMBL document CHEMBL2177070, “The effect of the placement and total charge of the basic amino acid clusters on antibacterial organism selectivity and potency” (Bioorg Med Chem, 2011).
Converted amounts (≈) assume the structure as drawn. Square brackets hold non-standard residues; d marks the D form. Peptide text beside a SMILES is read from it. ξ: configuration not given here. Oic(3aξ,7aξ) = O=C(O)[C@@H]1CC2CCCCC2N1; Tiq1c(1S) = O=C(O)[C@H]1NCCc2ccccc21

Experiments:
Brucella abortus = test: Antimicrobial activity against Brucella abortus 2308; type: functional
[1] = Binding affinity to 1-palmitoyl-2-oleoyl-sn-glycero-3-phosphocholine small unilamellar vesicle in 40 mM phosphate buffer at pH 6.8 at 100 uM by Far-UV CD spectra analysis; type: physicochemical; settings: pH 6.8, 100 µM
[2] = Binding affinity to 1-palmitoyl-2-oleoyl-sn-glycero-3-phosphocholine/1-palmitoyl- 2-oleoyl-sn-glycero-3-[phospho-rac-(1-glycerol)] (sodium salt) large unilamellar vesicle at 200 uM by isothermal titration calorimetry analysis; type: physicochemical
[3] = Binding affinity to SDS micelles by CD spectra analysis; type: physicochemical
Bacillus anthracis = test: Antimicrobial activity against Bacillus anthracis AMES; type: functional
[4] = tested on: Francisella tularensis subsp. tularensis SCHU S4; test: Antimicrobial activity against Francisella tularensis SCHUS4; type: functional
[5] = Induction of calcein leakage in 1-palmitoyl-2-oleoyl-sn-glycero-3-phosphocholine/1-palmitoyl- 2-oleoyl-sn-glycero-3-[phospho-rac-(1-glycerol)] (sodium salt) large unilamellar vesicle assessed as leakage constant after 90 mins by fluorescence assay; type: physicochemical; settings: 1.5 h
[6] = tested on: Burkholderia pseudomallei; test: Antimicrobial activity against Burkholderia pseudomallei; type: functional
[7] = Induction of calcein leakage in 1-palmitoyl-2-oleoyl-sn-glycero-3-phosphocholine large unilamellar vesicle at 4 to 20 uM after 90 mins by fluorescence assay; type: physicochemical; settings: 1.5 h
[8] = Binding affinity to 1-palmitoyl-2-oleoyl-sn-glycero-3-phosphocholine/1-palmitoyl- 2-oleoyl-sn-glycero-3-[phospho-rac-(1-glycerol)] (sodium salt) small unilamellar vesicle in 40 mM phosphate buffer at pH 6.8 at 100 uM by Far-UV CD spectra analysis; type: physicochemical; settings: pH 6.8, 100 µM
Acinetobacter baumannii [9] = test: Antimicrobial activity against Acinetobacter baumannii ATCC 19606; type: functional
Burkholderia mallei = test: Antimicrobial activity against Burkholderia mallei; type: functional
[10] = Binding affinity to 1-palmitoyl-2-oleoyl-sn-glycero-3-phosphocholine large unilamellar vesicle in 40 mM phosphate buffer at pH 6.8 at 100 uM by Far-UV CD spectra analysis; type: physicochemical; settings: pH 6.8, 100 µM
Yersinia pestis = test: Antimicrobial activity against Yersinia pestis CO92; type: functional
Staphylococcus aureus [11] = test: Antimicrobial activity against Staphylococcus aureus ATCC 33591; type: functional
[12] = Induction of calcein leakage in 1-palmitoyl-2-oleoyl-sn-glycero-3-phosphocholine/1-palmitoyl- 2-oleoyl-sn-glycero-3-[phospho-rac-(1-glycerol)] (sodium salt) large unilamellar vesicle at 4 to 20 uM after 90 mins by fluorescence assay; type: physicochemical; settings: 1.5 h
[13] = Binding affinity to 1-palmitoyl-2-oleoyl-sn-glycero-3-phosphocholine large unilamellar vesicle at 100 uM by isothermal titration calorimetry analysis; type: physicochemical
[14] = Induction of calcein leakage in 1-palmitoyl-2-oleoyl-sn-glycero-3-phosphocholine large unilamellar vesicle assessed as leakage constant after 90 mins by fluorescence assay; type: physicochemical; settings: 1.5 h
Brucella melitensis = test: Antimicrobial activity against Brucella melitensis 16M; type: functional
Brucella suis = test: Antimicrobial activity against Brucella suis 23444; type: functional
[15] = Binding affinity to DPC micelles by CD spectra analysis; type: physicochemical
[16] = Binding affinity to 1-palmitoyl-2-oleoyl-sn-glycero-3-phosphocholine/1-palmitoyl- 2-oleoyl-sn-glycero-3-[phospho-rac-(1-glycerol)] (sodium salt) large unilamellar vesicle in 40 mM phosphate buffer at pH 6.8 at 100 uM by Far-UV CD spectra analysis; type: physicochemical; settings: pH 6.8, 100 µM
Acinetobacter baumannii [17] = test: Antimicrobial activity against Acinetobacter baumannii WRAIR; type: functional
Staphylococcus aureus [18] = test: Antimicrobial activity against ME/GM/TC-resistant Staphylococcus aureus; type: functional
Salmonella typhimurium = test: Antimicrobial activity against Salmonella typhimurium; type: functional, Salmonella enterica subsp. enterica serovar Typhimurium; settings: Salmonella enterica
Mycobacterium = test: Antimicrobial activity against Mycobacterium ranae; type: functional
[19] = Binding affinity to 1-palmitoyl-2-oleoyl-sn-glycero-3-phosphocholine/1-palmitoyl- 2-oleoyl-sn-glycero-3-[phospho-rac-(1-glycerol)] (sodium salt) small unilamellar vesicle in 40 mM phosphate buffer at pH 6.8 at 75 uM by Far-UV CD spectra analysis; type: physicochemical; settings: pH 6.8, 75 µM
[20] = Binding affinity to 1-palmitoyl-2-oleoyl-sn-glycero-3-phosphocholine large unilamellar vesicle at 200 uM by isothermal titration calorimetry analysis; type: physicochemical
[21] = Binding affinity to 1-palmitoyl-2-oleoyl-sn-glycero-3-phosphocholine/1-palmitoyl- 2-oleoyl-sn-glycero-3-[phospho-rac-(1-glycerol)] (sodium salt) large unilamellar vesicle in 40 mM phosphate buffer at pH 6.8 at 75 uM by Far-UV CD spectra analysis; type: physicochemical; settings: pH 6.8, 75 µM
Bacillus subtilis = test: Antimicrobial activity against Bacillus subtilis; type: functional
[22] = Binding affinity to 1-palmitoyl-2-oleoyl-sn-glycero-3-phosphocholine large unilamellar vesicle in 40 mM phosphate buffer at pH 6.8 at 75 uM by Far-UV CD spectra analysis; type: physicochemical; settings: pH 6.8, 75 µM
[23] = Binding affinity to 1-palmitoyl-2-oleoyl-sn-glycero-3-phosphocholine small unilamellar vesicle in 40 mM phosphate buffer at pH 6.8 at 75 uM by Far-UV CD spectra analysis; type: physicochemical; settings: pH 6.8, 75 µM

Structure (SMILES) | MIC (Brucella abortus) [µM] | Activity [1] | Activity [2] | Activity [3] | MIC (Bacillus anthracis) [µM] | MIC [4] [µM] | K [5] | MIC [6] [µM] | Activity [8] | MIC (Acinetobacter baumannii [9]) [µM] | MIC (Burkholderia mallei) [µM] | Activity [10] | MIC (Yersinia pestis) [µM] | MIC (Staphylococcus aureus [11]) [µM] | Activity [12] | Activity [13] | K [14] | MIC (Brucella melitensis) [µM] | MIC (Brucella suis) [µM] | Activity [15] | further results
CC(=O)NCC(=O)N[C@@H](Cc1ccccc1)C(=O)N1CCc2ccccc2[C@H]1C(=O)N1C2CCCCC2C[C@H]1C(=O)NCC(=O)N[C@@H](CCCCN)C(=O)N1CCc2ccccc2[C@H]1C(=O)N1C2CCCCC2C[C@H]1C(=O)NCC(=O)N[C@@H](Cc1ccccc1)C(=O)N1CCc2ccccc2[C@H]1C(=O)N1C2CCCCC2C[C@H]1C(=O)NCC(=O)N[C@@H](CCCCN)C(=O)N1CCc2ccccc2[C@H]1C(=O)N[C@@H](CCCCN)C(=O)N[C@@H](CCCCN)C(=O)N[C@@H](CCCCN)C(N)=O (stereo partly drawn) (Ac-GF[Tiq1c(1S)][Oic(3aξ,7aξ)]GK[Tiq1c(1S)][Oic(3aξ,7aξ)]GF[Tiq1c(1S)][Oic(3aξ,7aξ)]GK[Tiq1c(1S)]KKK-NH2) | 27 (≈ 62.4 µg/mL) | Active | Active | Active | 27 (≈ 62.4 µg/mL) | 0.02 (≈ 0.0463 µg/mL) | 0.075 | 0.02 (≈ 0.0463 µg/mL) | Active | 6.7 (≈ 15.5 µg/mL) | 0.02 (≈ 0.0463 µg/mL) | Active | 27 (≈ 62.4 µg/mL) | 54 (≈ 125 µg/mL) | Active | Active | 0.014 | 54 (≈ 125 µg/mL) | > 216 | Active | Activity [7]: Active; Activity [16]: Active; MIC (Acinetobacter baumannii [17]): 3.4 µM (≈ 7.86 µg/mL)
CC(=O)N[C@@H](CCCCN)C(=O)N[C@@H](CCCCN)C(=O)N[C@@H](CCCCN)C(=O)N[C@@H](CCCCN)C(=O)NCC(=O)N[C@@H](Cc1ccccc1)C(=O)N1CCc2ccccc2[C@H]1C(=O)N1C2CCCCC2C[C@H]1C(=O)NCC(=O)N[C@@H](CCCCN)C(=O)N1CCc2ccccc2[C@H]1C(=O)N1C2CCCCC2C[C@H]1C(=O)NCC(=O)N[C@@H](Cc1ccccc1)C(=O)N1CCc2ccccc2[C@H]1C(=O)N1C2CCCCC2C[C@H]1C(=O)NCC(=O)N[C@@H](CCCCN)C(=O)N1CCc2ccccc2[C@H]1C(N)=O (stereo partly drawn) (Ac-KKKKGF[Tiq1c(1S)][Oic(3aξ,7aξ)]GK[Tiq1c(1S)][Oic(3aξ,7aξ)]GF[Tiq1c(1S)][Oic(3aξ,7aξ)]GK[Tiq1c(1S)]-NH2) | 51 (≈ 124 µg/mL) | Active | Active | Active | 0.4 (≈ 0.976 µg/mL) | 51 (≈ 124 µg/mL) | 0.0085 | 204 (≈ 498 µg/mL) | Active | 12.8 (≈ 31.2 µg/mL) | 204 (≈ 498 µg/mL) | Active | 13.1 (≈ 32 µg/mL) | 102 (≈ 249 µg/mL) | Active | Active | 0.57 | 51 (≈ 124 µg/mL) | 25.6 (≈ 62.5 µg/mL) | Active | MIC (Staphylococcus aureus [18]): 30 µM (≈ 73.2 µg/mL); Activity [7]: Active; MIC (Salmonella typhimurium): 100 µM (≈ 244 µg/mL); MIC (Mycobacterium): 3 µM (≈ 7.32 µg/mL); Activity [16]: Active; MIC (Acinetobacter baumannii [17]): 12.8 µM (≈ 31.2 µg/mL)
CC(=O)NCC(=O)N[C@@H](Cc1ccccc1)C(=O)N1CCc2ccccc2[C@H]1C(=O)N1C2CCCCC2C[C@H]1C(=O)NCC(=O)N[C@@H](CCCCN)C(=O)N1CCc2ccccc2[C@H]1C(=O)N1C2CCCCC2C[C@H]1C(=O)NCC(=O)N[C@@H](Cc1ccccc1)C(=O)N1CCc2ccccc2[C@H]1C(=O)N1C2CCCCC2C[C@H]1C(=O)NCC(=O)N[C@@H](CCCCN)C(=O)N1CCc2ccccc2[C@H]1C(=O)N[C@@H](CCCCN)C(=O)N[C@@H](CCCCN)C(=O)N[C@@H](CCCCN)C(=O)N[C@@H](CCCCN)C(N)=O (stereo partly drawn) (Ac-GF[Tiq1c(1S)][Oic(3aξ,7aξ)]GK[Tiq1c(1S)][Oic(3aξ,7aξ)]GF[Tiq1c(1S)][Oic(3aξ,7aξ)]GK[Tiq1c(1S)]KKKK-NH2) | 205 (≈ 500 µg/mL) |  | Active | Active | 12.8 (≈ 31.2 µg/mL) | 100 (≈ 244 µg/mL) | 0.089 | 205 (≈ 500 µg/mL) |  | 3.2 (≈ 7.81 µg/mL) | 205 (≈ 500 µg/mL) |  | 205 (≈ 500 µg/mL) | 205 (≈ 500 µg/mL) | Not Active |  | 0.097 | 205 (≈ 500 µg/mL) | 205 (≈ 500 µg/mL) | Active | MIC (Staphylococcus aureus [18]): 3 µM (≈ 7.32 µg/mL); Activity [19]: Active; MIC (Salmonella typhimurium): 10 µM (≈ 24.4 µg/mL); Activity [20]: Active; Activity [21]: Active; MIC (Bacillus subtilis): 1 µM (≈ 2.44 µg/mL); MIC (Mycobacterium): 10 µM (≈ 24.4 µg/mL); Activity [22]: Active; Activity [23]: Active; MIC (Acinetobacter baumannii [17]): 3.2 µM (≈ 7.81 µg/mL)
CC(=O)NCC(=O)N[C@@H](Cc1ccccc1)C(=O)N1CCc2ccccc2[C@H]1C(=O)N1C2CCCCC2C[C@H]1C(=O)NCC(=O)N[C@@H](CCCCN)C(=O)N1CCc2ccccc2[C@H]1C(=O)N1C2CCCCC2C[C@H]1C(=O)NCC(=O)N[C@@H](Cc1ccccc1)C(=O)N1CCc2ccccc2[C@H]1C(=O)N1C2CCCCC2C[C@H]1C(=O)NCC(=O)N[C@@H](CCCCN)C(=O)N1CCc2ccccc2[C@H]1C(=O)N[C@@H](CCCCN)C(=O)N[C@@H](CCCCN)C(=O)N[C@@H](CCCCN)C(=O)N[C@@H](CCCCN)C(=O)N[C@@H](CCCCN)C(N)=O (stereo partly drawn) (Ac-GF[Tiq1c(1S)][Oic(3aξ,7aξ)]GK[Tiq1c(1S)][Oic(3aξ,7aξ)]GF[Tiq1c(1S)][Oic(3aξ,7aξ)]GK[Tiq1c(1S)]KKKKK-NH2) |  | Active | Active |  |  |  | 0.073 |  | Active |  |  | Active |  |  | Not Active | Active | 0.0011 |  |  |  | MIC (Staphylococcus aureus [18]): 3 µM (≈ 7.71 µg/mL); MIC (Salmonella typhimurium): 10 µM (≈ 25.7 µg/mL); MIC (Bacillus subtilis): 1 µM (≈ 2.57 µg/mL); MIC (Mycobacterium): 3 µM (≈ 7.71 µg/mL); Activity [16]: Active
